Measurements from PubChem BioAssay AID1963434 (Molecular Pharmacology Branch, DTP, NCI, 2024).
Where “and” joins values, the source holds several entries; their conditions need not be identical. Equal entries are not always repeated.

Tested on: 755483-174-R-J1-PDC complex spheroid growth, percent test/control
Test: Anticancer human tumor 755483-174-R-J1-PDC patient-derived rhabdomyosarcoma cell line growth inhibition [Asc]
Details: for viability, T/C: stronger effect = lower value
How it was run: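 Complex spheroids combining tumor cells with HUVEC endothelial cells and human MSCs, at 37 degrees C, 5% CO2; agents tested alone or combined, half-log dilutions from at or near clinical Cmax, or 10 microM if Cmax unknown.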

[1] = curve of first compound, second compound 0.1 µM
[2] = curve of first compound, second compound 0.316 µM
[3] = curve of first compound, second compound 1 µM
[4] = curve of first compound, second compound 3.16 µM
[5] = curve of first compound, second compound 10 µM
[6] = second compound 0.1 µM, first compound 0.0316 µM
[7] = second compound 0.1 µM, first compound 0.1 µM
[8] = second compound 0.1 µM, first compound 0.316 µM
[9] = second compound 0.1 µM, first compound 1 µM
[10] = second compound 0.1 µM, first compound 3.16 µM
[11] = second compound 0.1 µM, first compound 10 µM
[12] = second compound 0.316 µM, first compound 0.0316 µM
[13] = second compound 0.316 µM, first compound 0.1 µM
[14] = second compound 0.316 µM, first compound 0.316 µM
[15] = second compound 0.316 µM, first compound 1 µM
[16] = second compound 0.316 µM, first compound 3.16 µM
[17] = second compound 0.316 µM, first compound 10 µM
[18] = second compound 1 µM, first compound 0.0316 µM
[19] = second compound 1 µM, first compound 0.1 µM
[20] = second compound 1 µM, first compound 0.316 µM
[21] = second compound 1 µM, first compound 1 µM
[22] = second compound 1 µM, first compound 3.16 µM
[23] = second compound 1 µM, first compound 10 µM
[24] = second compound 3.16 µM, first compound 0.0316 µM
[25] = second compound 3.16 µM, first compound 0.1 µM
[26] = second compound 3.16 µM, first compound 0.316 µM
[27] = second compound 3.16 µM, first compound 1 µM
[28] = second compound 3.16 µM, first compound 3.16 µM
[29] = second compound 3.16 µM, first compound 10 µM
[30] = second compound 10 µM, first compound 0.0316 µM
[31] = second compound 10 µM, first compound 0.1 µM
[32] = second compound 10 µM, first compound 0.316 µM
[33] = second compound 10 µM, first compound 1 µM
[34] = second compound 10 µM, first compound 3.16 µM
[35] = second compound 10 µM, first compound 10 µM
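Also: spheroids exposed to compounds for seven days before readout.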

NC(=O)C(=Cn1cnc(-c2cc(C(F)(F)F)cc(C(F)(F)F)c2)n1)c1cncnc1
viability, T/C (compound 0.000949 µM): 83.4% and 72.6% and 109%
viability, T/C (compound 0.003 µM): 79.3% and 74.5% and 76.7%
viability, T/C (compound 0.00949 µM): 31.9% and 25.1% and 35.4%
viability, T/C (compound 0.03 µM): 12.6% and 12.7% and 19.2%
viability, T/C (compound 0.0949 µM): 8.9% and 7.51% and 9.5%
viability, T/C (compound 0.3 µM): 9.16% and 4.1% and 26.1%
IC50 (curve of compound): 6.11 nM and 5.25 nM and 6.23 nM

C=CC(=O)N1CCN(c2nc(=O)n(-c3c(C)ccnc3C(C)C)c3nc(-c4c(O)cccc4F)c(F)cc23)C(C)C1 (configuration not stated) + Cc1c(S(C)(=O)=O)c(-c2cc(F)cc(N3CCN(c4ccc(NS(=O)(=O)c5ccc(NC(CCN6CCC(C(=O)OCCCP(=O)(O)O)CC6)CSc6ccccc6)c(S(=O)(=O)C(F)(F)F)c5)cc4)CC3)c2)c(-c2ccc(Cl)cc2)n1C(C)C
IC50 [1]: > 10000 nM
IC50 [2]: 5510 nM
IC50 [3]: < 31.6 nM
IC50 [4]: > 10000 nM
IC50 [5]: < 31.6 nM
viability, T/C [6]: 79.5%
viability, T/C [7]: 46.7%
viability, T/C [8]: 58.4%
viability, T/C [9]: 72.9%
viability, T/C [10]: 62.3%
viability, T/C [11]: 56.2%
viability, T/C [12]: 45.4%
viability, T/C [13]: 64.7%
viability, T/C [14]: 44.5%
viability, T/C [15]: 57.1%
viability, T/C [16]: 53.2%
viability, T/C [17]: 46.9%
viability, T/C [18]: 47.2%
viability, T/C [19]: 47.4%
viability, T/C [20]: 54.8%
viability, T/C [21]: 49%
viability, T/C [22]: 49.3%
viability, T/C [23]: 37.7%
viability, T/C [24]: 52.4%
viability, T/C [25]: 46%
viability, T/C [26]: 51.9%
viability, T/C [27]: 63.2%
viability, T/C [28]: 48.3%
viability, T/C [29]: 48.8%
viability, T/C [30]: 35%
viability, T/C [31]: 34.6%
viability, T/C [32]: 50.2%
viability, T/C [33]: 42.6%
viability, T/C [34]: 32.8%
viability, T/C [35]: 42.7%

C=C(F)C(=O)N1CCN(c2nc(OCC3CCCN3C)nc3c2CCN(c2cccc4cccc(Cl)c24)C3)CC1CC#N (configuration not stated) + Cc1c(S(C)(=O)=O)c(-c2cc(F)cc(N3CCN(c4ccc(NS(=O)(=O)c5ccc(NC(CCN6CCC(C(=O)OCCCP(=O)(O)O)CC6)CSc6ccccc6)c(S(=O)(=O)C(F)(F)F)c5)cc4)CC3)c2)c(-c2ccc(Cl)cc2)n1C(C)C
IC50 [1]: 235 nM
IC50 [2]: < 31.6 nM
IC50 [3]: < 31.6 nM
IC50 [4]: < 31.6 nM
IC50 [5]: < 31.6 nM
viability, T/C [6]: 46.4%
viability, T/C [7]: 58.9%
viability, T/C [8]: 49.7%
viability, T/C [9]: 30.2%
viability, T/C [10]: 8.51%
viability, T/C [11]: 0.1%
viability, T/C [12]: 39.3%
viability, T/C [13]: 48.7%
viability, T/C [14]: 39.4%
viability, T/C [15]: 33.4%
viability, T/C [16]: 10.8%
viability, T/C [17]: 0.52%
viability, T/C [18]: 40.9%
viability, T/C [19]: 37.9%
viability, T/C [20]: 32%
viability, T/C [21]: 20.3%
viability, T/C [22]: 5.1%
viability, T/C [23]: 1.75%
viability, T/C [24]: 35%
viability, T/C [25]: 27%
viability, T/C [26]: 30.6%
viability, T/C [27]: 16.5%
viability, T/C [28]: 8.95%
viability, T/C [29]: 0.11%
viability, T/C [30]: 42.9%
viability, T/C [31]: 41.7%
viability, T/C [32]: 34%
viability, T/C [33]: 20.6%
viability, T/C [34]: 11.8%
viability, T/C [35]: 0.16%
